Test results from ChEMBL document CHEMBL5614367, “Hydroxamic acid hybrids: Histone deacetylase inhibitors with anticancer therapeutic potency” (Eur J Med Chem, 2023).

Columns and labels:
Histone deacetylase 1 [1] = biological target: T1, Histone deacetylase 1 (Homo sapiens, UniProt Q13547); test: Inhibition of human HDAC1 incubated for 30 mins by ELISA; conditions: pooled result: one value given for 5 cell lines, strains, targets or settings
MCF7 [2] = test: Antiproliferative activity against human MCF7 cells measured after 24 hrs by MTT assay; assay type: functional, cell-based; conditions: MCF7, 24 h
HCT-116 [3] = test: Antiproliferative activity against human HCT-116 cells measured after 24 hrs by MTT assay; assay type: functional, cell-based; conditions: HCT-116, 24 h
Ehrlich [4] = test: Antitumor activity against mouse EAC cells implanted in mouse assessed as reduction in tumor volume at 0.5 mg/kg, ip relative to control; assay type: functional; design: scale not given: the % may be the effect or the level left
HepG2 [5] = test: Antiproliferative activity against human HepG2 cells measured after 24 hrs by MTT assay; assay type: functional, cell-based; conditions: HepG2, 24 h
Ehrlich [6] = test: Antitumor activity against mouse EAC cells implanted in mouse assessed as increase in life span at 0.5 mg/kg, ip relative to control; assay type: functional
HeLa = test: Antiproliferative activity against human HeLa cells measured after 24 hrs by MTT assay; assay type: functional, cell-based
A549 [7] = test: Antiproliferative activity against human A549 cells assessed as inhibition of cell growth measured after 72 hrs by MTT assay; assay type: functional, cell-based; conditions: A549, 72 h, pooled result: one value given for 8 cell lines, strains, targets or settings
[8] = Metabolic stability in rat liver microsomes assessed as half life incubated for 60 mins in presence of NADPH by LC-MS/MS analysis; assay type: ADME, Microsome
Histone deacetylase 1 [9] = biological target: T1, Histone deacetylase 1; test: Inhibition of HDAC1 (unknown origin) using 6-carboxyfluorescein peptide as substrate incubated for 18 hrs by fluorescence based assay
[10] = Metabolic stability in mouse liver microsomes assessed as half life incubated for 60 mins in presence of NADPH by LC-MS/MS analysis; assay type: ADME, Microsome
[11] = Metabolic stability in human liver microsomes assessed as half life incubated for 60 mins in presence of NADPH by LC-MS/MS analysis; assay type: ADME, Microsome
Histone deacetylase 2 [12] = biological target: T2, Histone deacetylase 2 (Homo sapiens, UniProt Q92769); test: Inhibition of HDAC2 (unknown origin) using 6-carboxyfluorescein peptide as substrate incubated for 18 hrs by fluorescence based assay
T2 sequence (Q92769 whole entry): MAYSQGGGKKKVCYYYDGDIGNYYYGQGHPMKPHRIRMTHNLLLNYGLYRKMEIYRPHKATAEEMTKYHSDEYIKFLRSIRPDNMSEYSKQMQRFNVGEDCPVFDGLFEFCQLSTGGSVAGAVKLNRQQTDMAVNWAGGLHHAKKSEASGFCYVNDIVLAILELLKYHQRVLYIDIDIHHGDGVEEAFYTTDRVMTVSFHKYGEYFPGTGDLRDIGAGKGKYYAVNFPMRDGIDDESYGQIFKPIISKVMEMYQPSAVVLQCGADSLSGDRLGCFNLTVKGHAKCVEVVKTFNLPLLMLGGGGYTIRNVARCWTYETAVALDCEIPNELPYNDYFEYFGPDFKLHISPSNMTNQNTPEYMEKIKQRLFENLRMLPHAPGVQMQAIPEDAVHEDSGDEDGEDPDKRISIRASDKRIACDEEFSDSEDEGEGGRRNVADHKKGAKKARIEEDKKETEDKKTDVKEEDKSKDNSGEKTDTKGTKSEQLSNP

[13] = Oral bioavailability in female […] at 10 mg/kg; assay type: ADME, organism-based; conditions: in vivo
[14] = biological target: T3, Protein deacetylase HDAC6 (Homo sapiens, UniProt Q9UBN7); test: Inhibition of HDAC6 (unknown origin) using 6-carboxyfluorescein peptide as substrate incubated for 18 hrs by fluorescence based assay
T3 sequence (Q9UBN7 whole entry): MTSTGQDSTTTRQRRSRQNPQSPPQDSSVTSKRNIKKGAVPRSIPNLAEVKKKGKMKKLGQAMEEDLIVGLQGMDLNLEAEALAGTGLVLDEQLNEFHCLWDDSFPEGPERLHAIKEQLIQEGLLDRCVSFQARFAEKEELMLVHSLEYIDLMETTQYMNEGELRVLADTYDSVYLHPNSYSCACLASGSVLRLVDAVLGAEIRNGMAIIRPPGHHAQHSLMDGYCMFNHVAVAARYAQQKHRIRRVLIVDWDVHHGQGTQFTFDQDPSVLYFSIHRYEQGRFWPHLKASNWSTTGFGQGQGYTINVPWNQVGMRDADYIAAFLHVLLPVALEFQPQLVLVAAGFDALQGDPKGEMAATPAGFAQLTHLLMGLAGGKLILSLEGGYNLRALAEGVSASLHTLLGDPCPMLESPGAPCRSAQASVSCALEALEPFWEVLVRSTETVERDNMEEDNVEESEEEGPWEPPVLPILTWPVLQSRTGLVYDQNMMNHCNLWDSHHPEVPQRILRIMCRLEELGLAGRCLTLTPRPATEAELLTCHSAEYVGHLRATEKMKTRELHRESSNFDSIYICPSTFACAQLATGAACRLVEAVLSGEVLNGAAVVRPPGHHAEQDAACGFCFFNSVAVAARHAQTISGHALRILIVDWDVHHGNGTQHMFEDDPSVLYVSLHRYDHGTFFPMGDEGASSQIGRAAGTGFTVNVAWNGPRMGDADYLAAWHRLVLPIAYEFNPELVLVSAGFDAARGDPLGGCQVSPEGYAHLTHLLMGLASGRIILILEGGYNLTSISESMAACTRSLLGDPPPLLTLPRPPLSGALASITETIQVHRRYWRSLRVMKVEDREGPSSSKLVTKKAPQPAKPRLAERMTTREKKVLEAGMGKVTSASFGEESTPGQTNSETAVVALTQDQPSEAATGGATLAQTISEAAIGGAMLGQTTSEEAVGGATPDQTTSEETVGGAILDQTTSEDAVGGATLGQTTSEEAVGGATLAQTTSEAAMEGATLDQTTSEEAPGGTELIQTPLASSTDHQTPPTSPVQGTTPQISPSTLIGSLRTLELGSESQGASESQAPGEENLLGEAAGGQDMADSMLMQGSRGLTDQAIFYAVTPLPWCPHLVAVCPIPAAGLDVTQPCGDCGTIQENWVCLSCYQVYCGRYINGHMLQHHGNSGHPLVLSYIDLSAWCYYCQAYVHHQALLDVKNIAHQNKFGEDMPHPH

U-87 MG [15] = test: Antitumor activity against human U87 cells xenografted in mouse assessed as tumor growth inhibition at 20 mg/kg, po relative to control; assay type: functional, U-87MG ATCC; conditions: read-out: TGI
SH-SY5Y = test: Antiproliferative activity against human SH-SY5Y cells by MTT assay; assay type: functional, cell-based
HT-29 = test: Antiproliferative activity against human HT-29 cells assessed as reduction in cell growth by MTT assay; assay type: functional, cell-based
[16] = biological target: T3, Protein deacetylase HDAC6; test: Inhibition of HDAC6 (unknown origin) using ZMAL (Z-Lys(Ac)-AMC as fluorogenic substrate pre-incubated for 15 mins followed by susbtrate addition and measured for 45 mins by fluorescence based analysis
CAPAN-1 [17] = test: Antiproliferative activity against human CAPAN-1 cells; assay type: functional, cell-based
CAPAN-1 [18] = test: Antitumor activity against human CAPAN-1 cells xenografted in mouse assessed as tumor growth inhibition at 100 mg/kg, ip relative to control; assay type: functional; conditions: read-out: TGI
Histone deacetylase 1 [19] = biological target: T1, Histone deacetylase 1; test: Inhibition of HDAC1 (unknown origin)
CAPAN-1 [20] = test: Antitumor activity against human CAPAN-1 cells xenografted in mouse assessed as tumor growth inhibition at 50 mg/kg, ip relative to control; assay type: functional; conditions: read-out: TGI
[21] = biological target: Bromodomain-containing protein 4 (Homo sapiens, UniProt O60885); test: Inhibition of BRD4 (unknown origin)
CAPAN-1 [22] = test: Potency index, ratio of vorinostat IC50 to test compound IC50 for antiproliferative activity against human CAPAN-1 cells; assay type: functional
HL-60 = test: Antiproliferative activity against human HL-60 cells assessed as cell growth inhibition by MTT assay; assay type: functional, cell-based
U-937 = test: Antiproliferative activity against human U-937 cells assessed as cell growth inhibition by MTT assay; assay type: functional, cell-based
CAPAN-1 [23] = test: Antitumor activity against human CAPAN-1 cells xenografted in mouse assessed as tumor growth inhibition at 50 mg/kg, ip in presence of vorinostat relative to control; assay type: functional; conditions: read-out: TGI
[24] = Antiproliferative activity against human MCF-10F cells assessed as reduction in cell viability incubated for 48 hrs by MTT assay; assay type: toxicity, cell-based
[25] = Antiproliferative activity against human BEAS-2B cells assessed as reduction in cell viability incubated for 48 hrs by MTT assay; assay type: toxicity, cell-based
[26] = Antiproliferative activity against human MCF-10A cells assessed as reduction in cell viability incubated for 48 hrs by MTT assay; assay type: toxicity, cell-based
Histone deacetylase 2 [27] = biological target: T2, Histone deacetylase 2; test: Inhibition of HDAC2 (unknown origin) using Boc-Lys-(Ac)-AMC as substrate incubated for 60 mins by fluorescence based analysis
MDA-MB-231 = test: Antitumor activity against human MDA-MB-231 cells in nude mouse assessed as tumor growth inhibition at 20 mg/kg, ip administered once daily for 30 days relative to control; assay type: functional; conditions: MDA-MB-231, 720 h, time 30 day, read-out: TGI
[28] = Cytotoxicity against HEK293T cells; assay type: toxicity, cell-based, HEK-293T; conditions: human
Histone deacetylase 2 [29] = biological target: T2, Histone deacetylase 2; test: Inhibition of HDAC2 (unknown origin)
[30] = biological target: T3, Protein deacetylase HDAC6; test: Inhibition of HDAC6 (unknown origin)
Histone deacetylase 3 = Histone deacetylase 3 (Homo sapiens, UniProt O15379); test: Inhibition of HDAC3 (unknown origin)
Chain of Histone deacetylase 3 (O15379 whole entry): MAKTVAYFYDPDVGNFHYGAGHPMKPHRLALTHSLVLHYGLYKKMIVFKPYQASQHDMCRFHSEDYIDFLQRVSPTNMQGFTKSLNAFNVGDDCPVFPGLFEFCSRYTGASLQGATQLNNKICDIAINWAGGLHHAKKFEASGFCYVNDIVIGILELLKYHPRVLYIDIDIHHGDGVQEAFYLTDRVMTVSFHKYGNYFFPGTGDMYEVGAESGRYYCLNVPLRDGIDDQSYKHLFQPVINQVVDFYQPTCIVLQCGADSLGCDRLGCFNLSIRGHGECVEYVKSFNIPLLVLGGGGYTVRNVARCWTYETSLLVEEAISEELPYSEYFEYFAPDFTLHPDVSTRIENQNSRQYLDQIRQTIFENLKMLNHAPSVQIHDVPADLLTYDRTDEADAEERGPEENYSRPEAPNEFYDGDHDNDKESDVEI

[31] = Cytotoxicity against human PBMC cells; assay type: toxicity, cell-based
[32] = Antitumor activity against mouse WEHI-3 cells implanted in mouse assessed as reduction in tumor growth at 25 mg/kg, ip relative to control; assay type: functional; design: scale not given: the % may be the effect or the level left
Histone deacetylase 4 = Histone deacetylase 4 (Homo sapiens, UniProt P56524); test: Inhibition of HDAC4 (unknown origin)
Chain of Histone deacetylase 4 (P56524 whole entry): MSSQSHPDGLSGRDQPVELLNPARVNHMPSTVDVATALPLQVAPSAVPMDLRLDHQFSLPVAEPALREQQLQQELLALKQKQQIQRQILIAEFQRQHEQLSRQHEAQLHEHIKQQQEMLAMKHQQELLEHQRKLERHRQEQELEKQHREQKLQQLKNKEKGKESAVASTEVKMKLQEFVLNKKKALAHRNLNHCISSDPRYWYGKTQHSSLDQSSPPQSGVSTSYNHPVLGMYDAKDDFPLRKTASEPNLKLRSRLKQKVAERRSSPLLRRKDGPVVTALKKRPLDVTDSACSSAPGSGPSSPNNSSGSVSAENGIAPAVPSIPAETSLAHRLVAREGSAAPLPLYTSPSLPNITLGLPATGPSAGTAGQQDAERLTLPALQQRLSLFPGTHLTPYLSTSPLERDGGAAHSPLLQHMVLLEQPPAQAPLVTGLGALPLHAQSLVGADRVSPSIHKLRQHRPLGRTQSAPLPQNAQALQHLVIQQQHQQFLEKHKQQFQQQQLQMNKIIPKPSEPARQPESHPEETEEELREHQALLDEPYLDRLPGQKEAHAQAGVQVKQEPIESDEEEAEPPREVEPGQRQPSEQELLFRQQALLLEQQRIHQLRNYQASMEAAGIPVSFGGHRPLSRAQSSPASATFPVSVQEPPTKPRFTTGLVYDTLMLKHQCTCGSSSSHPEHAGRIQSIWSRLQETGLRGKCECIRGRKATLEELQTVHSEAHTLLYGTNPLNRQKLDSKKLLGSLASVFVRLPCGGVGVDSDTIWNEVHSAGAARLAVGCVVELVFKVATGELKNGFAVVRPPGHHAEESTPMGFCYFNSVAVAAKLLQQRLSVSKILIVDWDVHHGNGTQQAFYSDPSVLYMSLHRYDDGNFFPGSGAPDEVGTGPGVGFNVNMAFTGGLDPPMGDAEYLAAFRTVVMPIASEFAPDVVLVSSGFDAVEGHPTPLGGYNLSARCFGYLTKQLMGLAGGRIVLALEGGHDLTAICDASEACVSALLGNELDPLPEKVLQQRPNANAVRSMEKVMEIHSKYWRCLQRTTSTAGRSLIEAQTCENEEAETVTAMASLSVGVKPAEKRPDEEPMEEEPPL

[33] = Antitumor activity against mouse WEHI-3 cells implanted in mouse assessed as survival time at 25 mg/kg, ip (reference value: 16 day); assay type: functional
U-87 MG [34] = test: Antiproliferative activity against human U87 cells assessed as reduction in cell growth incubated for 72 hrs by MTT assay; assay type: functional, cell-based, U-87MG ATCC
U-251 = test: Antiproliferative activity against human U-251 cells assessed as reduction in cell growth incubated for 72 hrs by MTT assay; assay type: functional, cell-based; conditions: U-251, 72 h
Histone deacetylase 1 [35] = biological target: T1, Histone deacetylase 1; test: Inhibition of human HDAC1 by colorimetric ELISA assay
MCF7 [36] = test: Antiproliferative activity against human MCF7 cells assessed as reduction in cell growth measured for 48 hrs by MTT assay; assay type: functional, cell-based; conditions: MCF7, 48 h
Histone deacetylase 2 [37] = biological target: T2, Histone deacetylase 2; test: Inhibition of human HDAC2 by colorimetric ELISA assay
HCT-116 [38] = test: Antiproliferative activity against human HCT-116 cells assessed as reduction in cell growth measured for 48 hrs by MTT assay; assay type: functional, cell-based; conditions: HCT-116, 48 h
A549 [39] = test: Antiproliferative activity against human A549 cells assessed as reduction in cell growth measured for 48 hrs by MTT assay; assay type: functional, cell-based; conditions: A549, 48 h
HepG2 [40] = test: Antiproliferative activity against human HepG2 cells assessed as reduction in cell growth measured for 48 hrs by MTT assay; assay type: functional, cell-based; conditions: HepG2, 48 h

T1 sequence (Q13547 whole entry): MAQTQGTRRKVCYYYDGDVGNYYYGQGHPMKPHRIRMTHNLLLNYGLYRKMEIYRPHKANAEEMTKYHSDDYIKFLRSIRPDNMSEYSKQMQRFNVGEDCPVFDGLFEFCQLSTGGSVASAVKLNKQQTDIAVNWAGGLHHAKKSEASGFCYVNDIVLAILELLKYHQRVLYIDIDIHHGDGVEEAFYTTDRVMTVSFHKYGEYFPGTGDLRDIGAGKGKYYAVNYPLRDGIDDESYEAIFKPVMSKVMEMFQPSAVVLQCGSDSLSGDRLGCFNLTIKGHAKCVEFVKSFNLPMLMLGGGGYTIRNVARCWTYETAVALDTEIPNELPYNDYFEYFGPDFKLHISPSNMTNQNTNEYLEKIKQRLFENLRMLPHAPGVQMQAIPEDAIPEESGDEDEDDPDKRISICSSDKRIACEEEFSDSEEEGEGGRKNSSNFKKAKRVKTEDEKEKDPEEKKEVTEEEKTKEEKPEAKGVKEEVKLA

SMILES: CCCC(CCC)C(=O)N[C@@H](Cc1ccccc1)C(=O)NO
- IC50 (Histone deacetylase 1 [1]): 2.86 nM
- IC50 (MCF7 [2]): 9.62 µM
- IC50 (HCT-116 [3]): 9.62 µM
- Activity (Ehrlich [4]): ~36%
- IC50 (HepG2 [5]): 9.62 µM
- ILS at 0.5 mg/kg (Ehrlich [6]): 131%
- IC50 (HeLa): 9.62 µM

SMILES: COc1cc(/C=C/C(=O)CC(=O)/C=C/c2ccc(/C=C/C(=O)NO)cc2)ccc1O
- IC50 (A549 [7]): 5.33 µM
- half-life [8]: 40.7 min
- IC50 (Histone deacetylase 1 [9]): 0.38 nM
- half-life [10]: 32.7 min
- half-life [11]: 91.6 min
- IC50 (Histone deacetylase 2 [12]): 0.38 nM
- bioavailability [13]: 40.2%
- IC50 [14]: 0.38 nM
- inhibition in vivo at 20 mg/kg (U-87 MG [15]): 52.1%

SMILES: Cc1nc(C)c(C(=O)Nc2cccc(C(=O)NO)c2)nc1C
- IC50 (SH-SY5Y): 7.63 µM
- IC50 (HT-29): 4.99 µM
- IC50 [16]: 169 nM

SMILES: CC1=C(C)C2C(c3ccc(Cl)cc3)=N[C@@H](CC(=O)Nc3ccc(C(=O)NO)cc3)c3nnc(C)n3C2S1 (stereo partly specified)
- IC50 (CAPAN-1 [17]): 150 nM
- inhibition in vivo at 100 mg/kg (CAPAN-1 [18]): 87.7%
- IC50 (Histone deacetylase 1 [19]): 21 nM
- inhibition in vivo at 50 mg/kg (CAPAN-1 [20]): 69%
- IC50 [21]: 11 nM
- Ratio IC50 (CAPAN-1 [22]): 36

SMILES: O=C(O)CCCc1ccc(N(CCCl)CCCl)cc1 [CHLORAMBUCIL]
- IC50 (HL-60): 21.1 µM
- IC50 (U-937): 37.7 µM

SMILES: Cc1sc2c(c1C)C(c1ccc(Cl)cc1)=N[C@@H](CC(=O)OC(C)(C)C)c1nnc(C)n1-2
- inhibition in vivo at 50 mg/kg (CAPAN-1 [20]): 41%
- inhibition in vivo at 50 mg/kg (CAPAN-1 [23]): 57%

SMILES: O=C(CCCCCC(=O)N(Cc1ccc(Br)s1)c1ccc(OCCN2CCOCC2)cc1)NO
- IC50 at 48 h [24]: > 100 µM
- IC50 at 48 h [25]: > 100 µM
- IC50 at 48 h [26]: > 100 µM
- IC50 (Histone deacetylase 2 [27]): 3.22 nM
- inhibition in vivo at 20 mg/kg (MDA-MB-231): ~95%

SMILES: CNCCOc1ccc(-c2cc(=O)c3cc(OCCCCCC(=O)NO)cc(O)c3o2)cc1
- IC50 [28]: 9.49 µM
- IC50 (Histone deacetylase 2 [29]): 30 nM
- IC50 [30]: 30 nM
- IC50 (Histone deacetylase 3): 30 nM
- IC50 (Histone deacetylase 1 [19]): 30 nM
- IC50 [31]: 11.6 µM
- Activity [32]: ~65%
- IC50 (Histone deacetylase 4): 30 nM
- Survival [33]: 27 days

SMILES: O=C(CCCCCNC(=O)c1cc(O)c2c(c1)C(=O)c1cccc(O)c1C2=O)NO
- IC50 (U-87 MG [34]): 5.5 µM
- IC50 (U-251): 5.5 µM

SMILES: COc1cc(/C=C/C(=O)c2ccc(OCCCCCC(=O)NO)cc2)cc(OC)c1OC
- IC50 (Histone deacetylase 1 [35]): 60 nM
- IC50 (MCF7 [36]): 536 nM
- IC50 (Histone deacetylase 2 [37]): 60 nM
- IC50 (HCT-116 [38]): 536 nM
- IC50 (A549 [39]): 536 nM
- IC50 (HepG2 [40]): 536 nM
